Like-named read-outs stand apart in the source and are kept apart here.
How the values were obtained:
MCF7 tumors = assay: Chick embryo CAM xenograft: tumor weight and metastasis; assay type: in vivo; settings: every 48 h E10-E16, weighed E18
Experimental: All studies and procedures were conducted with prior approval of the Animal Ethics Committee of the University of Cape Town (FHS AEC REF NO:016/025) in accordance with the South African National Standard (SANS 10386:008) for the Care and Use of Animals for Scientific Purposes (SABS, 2015[71]), and guidelines from the Department of Health (2015[21]). Fertilized White Leghorn eggs were incubated at 37.5 °C with 50 % relative humidity for 9 days. At stage E9, the chorioallantoic membrane (CAM) was dropped by drilling a small hole through the eggshell into the air sac and a 1 cm^2 window was cut in the eggshell above the CAM. Cultured MCF7 cells were detached with trypsin, washed with complete medium and suspended in PBS. An inoculum of MCF7 cells was grafted onto the CAM of each E9 egg (21 eggs were used for each condition) and at E10, tumors were detectable. MCF7 tumors were treated every 48 h (E10, E12, E14, E16) by dropping 100 μl of vehicle (0.25 % DMSO in PBS), a reference compound (Paclitaxel), or MMV652103, onto the tumour. At E18 the upper portion of the CAM was removed, transferred to PBS and the tumors cut away from normal CAM tissue and weighed. A one-way ANOVA analysis with post-tests was done. In parallel, a 1 cm^2 portion of the lower CAM was collected to evaluate the number of metastatic cells. The relative amount of metastasis was calculated as follows: Tumor cells were grafted onto the upper chorioallantoic membrane (CAM) and during metastasis the cells invade the epithelium and basement membrane of the upper CAM and move through connective tissue into the vasculature into the lower CAM. The cells in the lower CAM are then harvested and genomic DNA is extracted and analyzed by qPCR with specific primers for Alu sequences which are only found in higher primates i.e. it allows for the distinction between human tumor cells and the host chick cells. Statistical analysis was directly performed on data from the Bio-Rad CFX Manager 3.1 software.

MCF7 cells = assay: ROS-Glo H2O2 assay; assay type: cell-based, human; settings: MCF7, 24 h, ½ IC50 and IC50
Experimental: To determine whether MMV652103 induced oxidative stress in breast cancer cells, the levels of H2O2 were measured using the ROS-Glo™ H2O2 assay kit (G8820, Promega, Wisconsin, USA), according to the manufacturer's instructions. Briefly, cells (2500-4500 cells per well) were seeded in opaque 96 well plates. Cells were treated for 24 h with either vehicle or MMV652103 in a volume of 80 μl per well. After 18 h of incubation, 20 μl H2O2 Substrate Solution was added to each well. After 24 h of incubation 100 μl ROS-Glo™ Detection Solution (prepared by mixing 10 ml Luciferin Detection Reagent, 100 μl D-Cysteine and 100 μl Signal Enhancer Solution) was added to each well and incubated at RT for 20 min. After incubation, the luminescence was read using the GloMax® Explorer Multimode plate reader (Promega, Wisconsin, USA).

[1] = test system: FG0 human skin fibroblasts; assay: MTT cytotoxicity assay, FG0; assay type: cell-based; settings: Skin fibroblast
Experimental: Human estrogen-receptor positive (ER+) breast adenocarcinoma cell lines, MCF7 and T47D, were maintained in Roswell Park Memorial Institute-1640 medium (Sigma Aldrich, Missouri, USA) and the human epidermal growth factor receptor 2 positive (HER2+) BT474, and triple negative (TNBC) MDA-MB-231 and MDA-MB-468 cells were maintained in Dulbecco's Modified Eagle's Medium (DMEM) (Sigma Aldrich, Missouri, USA). […]
(§1) Cells (3.5×10^3-6×10^3 / well) were seeded in 96-well plates and treated at a 60-70 % confluence with a range of concentrations (0-10 μM) of test compounds or vehicle for 48 h. Cell viability was measured using the 3-(4,5-dimethylthiazol-2-yl)-2,5-diphenyl-trazolium bromide (MTT) assay (11465007001; Sigma Aldrich) according to the manufacturer's instructions. Mean cell viability was calculated as a percentage of the mean vehicle control. A minimum of three independent experiments in quadruplicate were performed from which the IC50 was determined from sigmoidal plots using GraphPad Prism version 6.0 (GraphPad Software, California, USA). The selectivity index (SI) was determined by dividing the IC50 of a non-malignant cell line by the IC50 of a cancer cell line.

PIK3C3 = target: T1, PIK3C3 (Homo sapiens, UniProt Q8NEB9); assay: ADP-Glo lipid kinase assay, PIK3C3; assay type: biochemical; settings: 10 µM compound
T1 construct: purchased Carna Biosciences Inc; Invitrogen Corporation

PI4K2A = target: T2, PI4K2A (Homo sapiens, UniProt Q9BTU6); assay: ADP-Glo lipid kinase assay, PI4K2A; assay type: biochemical; settings: 10 µM compound
T2 construct: purchased Carna Biosciences Inc; Invitrogen Corporation

[2] = test system: MCF7 (breast cancer cell line); assay: MTT cytotoxicity assay, MCF7; assay type: cell-based, human; settings: for IC50: Homo sapiens
Text: Human estrogen-receptor positive (ER+) breast adenocarcinoma cell lines, MCF7 and T47D, were maintained in Roswell Park Memorial Institute-1640 medium (Sigma Aldrich, Missouri, USA) and the human epidermal growth factor receptor 2 positive (HER2+) BT474, and triple negative (TNBC) MDA-MB-231 and MDA-MB-468 cells were maintained in Dulbecco's Modified Eagle's Medium (DMEM) (Sigma Aldrich, Missouri, USA). FG0 human skin fibroblasts (provided by Associate Professor Denver Hendricks, University of Cape Town) were maintained in DMEM while the normal breast epithelial cell line MCF12A was maintained in DMEM:nutrient mixture F-12 (DMEM/F12; 1:1; Sigma Aldrich, Missouri, USA), supplemented with 20 ng/ml epidermal growth factor, 100 ng/ml cholera toxin, 500 ng/ml hydrocortisone and 10 µg/ml insulin. All media were supplemented with 10 % fetal bovine serum, 100 U/ml penicillin and 100 µg/ml streptomycin. Cells were maintained at 37 °C in a 5 % CO2 and 95 % air-humidified incubator. Media was replaced every 2-3 days and cells were routinely tested for mycoplasma infection.
as §1
Briefly, the cells were treated with a range of concentrations (2 - 20 µM) of each compound or vehicle (DMSO) for 48 h and MTT assays were performed. […] Based on the promising IC50 and SI values obtained for MMV652103, it was chosen for further studies.

PI4K2B = target: T3, PI4K2B (Homo sapiens, UniProt Q8TCG2); assay: ADP-Glo lipid kinase assay, PI4K2B; assay type: biochemical; settings: 10 µM compound
T3 construct: purchased Carna Biosciences Inc; Invitrogen Corporation
T3 sequence (Q8TCG2 whole entry): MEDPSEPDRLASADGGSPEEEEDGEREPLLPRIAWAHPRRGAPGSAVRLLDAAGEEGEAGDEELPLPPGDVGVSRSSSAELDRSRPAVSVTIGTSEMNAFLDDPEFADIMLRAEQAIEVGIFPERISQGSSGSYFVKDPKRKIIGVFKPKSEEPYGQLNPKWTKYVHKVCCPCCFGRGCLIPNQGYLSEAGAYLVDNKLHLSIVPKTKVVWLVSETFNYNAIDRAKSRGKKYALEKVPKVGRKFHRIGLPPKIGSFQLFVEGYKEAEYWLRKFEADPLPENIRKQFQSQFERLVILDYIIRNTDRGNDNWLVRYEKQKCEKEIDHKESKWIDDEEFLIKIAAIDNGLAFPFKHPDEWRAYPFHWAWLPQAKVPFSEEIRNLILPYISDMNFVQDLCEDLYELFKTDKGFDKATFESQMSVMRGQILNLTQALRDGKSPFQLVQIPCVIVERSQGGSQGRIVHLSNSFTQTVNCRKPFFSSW

T1 sequence (Q8NEB9 whole entry): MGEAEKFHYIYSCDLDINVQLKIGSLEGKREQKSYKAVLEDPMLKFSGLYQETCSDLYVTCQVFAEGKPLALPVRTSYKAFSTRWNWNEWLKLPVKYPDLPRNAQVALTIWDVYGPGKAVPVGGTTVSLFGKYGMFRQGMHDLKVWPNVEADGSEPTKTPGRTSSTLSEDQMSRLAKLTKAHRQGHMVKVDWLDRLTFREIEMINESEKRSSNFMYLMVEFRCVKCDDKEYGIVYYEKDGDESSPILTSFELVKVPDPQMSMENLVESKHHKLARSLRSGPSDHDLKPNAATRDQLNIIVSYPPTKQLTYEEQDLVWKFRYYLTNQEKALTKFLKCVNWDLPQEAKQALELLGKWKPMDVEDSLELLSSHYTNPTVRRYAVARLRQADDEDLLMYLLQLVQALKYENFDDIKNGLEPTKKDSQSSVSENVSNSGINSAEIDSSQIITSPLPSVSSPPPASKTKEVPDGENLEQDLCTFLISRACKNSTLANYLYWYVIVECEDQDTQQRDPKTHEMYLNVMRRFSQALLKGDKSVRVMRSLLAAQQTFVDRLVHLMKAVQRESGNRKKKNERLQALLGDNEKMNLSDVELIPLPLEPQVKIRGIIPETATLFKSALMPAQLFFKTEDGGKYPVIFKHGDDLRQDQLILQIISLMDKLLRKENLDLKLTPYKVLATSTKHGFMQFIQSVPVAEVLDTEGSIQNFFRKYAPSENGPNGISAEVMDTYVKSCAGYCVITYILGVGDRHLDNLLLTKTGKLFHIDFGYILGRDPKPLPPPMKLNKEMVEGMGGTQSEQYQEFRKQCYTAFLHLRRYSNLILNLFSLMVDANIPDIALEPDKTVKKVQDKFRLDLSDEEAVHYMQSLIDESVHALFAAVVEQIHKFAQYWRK
T2 sequence (Q9BTU6 whole entry): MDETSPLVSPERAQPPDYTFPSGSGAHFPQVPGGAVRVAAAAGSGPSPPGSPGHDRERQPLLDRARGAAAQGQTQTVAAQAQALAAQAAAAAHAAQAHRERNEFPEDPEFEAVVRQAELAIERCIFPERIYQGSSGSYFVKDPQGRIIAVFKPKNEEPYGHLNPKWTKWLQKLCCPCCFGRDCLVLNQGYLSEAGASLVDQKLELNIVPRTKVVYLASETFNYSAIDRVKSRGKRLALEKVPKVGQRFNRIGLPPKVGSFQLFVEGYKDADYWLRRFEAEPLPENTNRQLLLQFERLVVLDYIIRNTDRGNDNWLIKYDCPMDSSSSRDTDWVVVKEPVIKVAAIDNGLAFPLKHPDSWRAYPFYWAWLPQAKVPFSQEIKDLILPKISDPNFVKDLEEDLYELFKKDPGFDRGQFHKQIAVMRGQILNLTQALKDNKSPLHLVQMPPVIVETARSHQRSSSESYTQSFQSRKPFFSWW

## CS(=O)(=O)c1ccc(-c2cnc3ccc(-c4cccc(S(C)(=O)=O)c4)nn23)cc1 [MMV652103]
MCF7 tumors; 4.4 μM
  tumor weight reduction: 34.89%
MCF7 tumors; 22 μM
  tumor weight reduction: 41.71%
MCF7 cells
  levels of H2O2: significant increase
[1]; Fig 2C summary, MTT 48 h, read-out: IC50 ± SEM FG0
  IC50: > 10000 nM
[1]; MTT, 48 h, exact IC50 not reached, predicted, read-out: IC50 FG0
  IC50: > 10000 nM
PIK3C3
  remaining activity at 10 µM: 24%
PI4K2A
  remaining activity at 10 µM: 42%
[2]; MCF7, Fig 2C summary, MTT 48 h, read-out: IC50 ± SEM MCF7
  IC50: 2200 ± 1150 nM
[2]; MCF7, MTT, 48 h, read-out: Cytotoxicity assays (MTT) IC50 MCF7
  IC50: 2200 nM
[2]; average of MCF7 and T47D, read-out: average IC50 in the ER+ cell lines MCF7 and T47D
  IC50: 2500 nM
[2]; selectivity index, MCF12A vs MCF7
  SI IC50 MCF12A / IC50 MCF7: 3.02
PI4K2B
  remaining activity at 10 µM: 50%

— PMC9149975, “The diaryl-imidazopyridazine anti-plasmodial compound, MMV652103, exhibits anti-breast cancer activity” (EXCLI Journal, 2022)
